Experiments:
[1] = tested on: non-synovial control cancer cell lines (RD, HCT116, and Calu6); experiment: Growth of non-synovial control cancer cell lines, crystal violet day 14 (Example 4); assay type: cell-based; details: treated daily, day 14, FIG. 9
Description: (§1) Procedure: Cells were seeded into 6-well or 12-well plates and were treated daily with a BRD9 degrader (Compound 1), a bromo-domain BRD9 binder (Compound 2), E3 ligase binder (lenalidomide), DMSO, or staurosporin (positive control for cell killing), at indicated concentrations. The number of cells was optimized for each cell line. Growth media was refreshed every 5 days. By day 14, medium was removed, cells were washed with PBS, and stained using 500 μL of 0.005% (w/v) crystal violet solution in 25% (v/v) methanol for at least 1 hour at room temperature. Subsequently plates were scanned on an Odyssey CLx Imaging system.

[2] = tested on: non-synovial control cancer cell lines (293T, A549, G401); experiment: Growth of non-synovial control cancer cell lines (Example 3); assay type: cell-based; details: FIGS. 5-7
Description: (§2) Cells were treated with DMSO or the BRD9 degrader, Compound 1, at indicated concentrations, and proliferation was monitored from day 7 to day 14 by measuring confluency over time using an IncuCyte live cell analysis system (FIG. 5). Growth medium and compounds were refreshed every 3-4 days.
(§3) Cells were seeded into 12-well plates and treated with DMSO, 1 μM BRD9 inhibitor, Compound 2 (also known as BI-7273, see Martin et al, J Med Chem. 59(10):4462-4475 (2016); see structure of Compound 2 below), or 1 μM BRD9 degrader, Compound 1.
(§4) The number of cells was optimized for each cell line. Growth medium and compounds were refreshed every 3-5 days. SYO1, Yamato, A549, 293T and HS-SY-II cells were fixed and stained at day 11. ASKA cells were fixed and stained at day 23. Staining was done by incubation with crystal violet solution (0.5 g Crystal Violet, 27 ml 37% Formaldehyde, 100 mL 10×PBS, 10 mL Methanol, 863 dH20 to 1 L) for 30 min followed by 3× washes with water and drying the plates for at least 24 h at room temperature. Subsequently plates were scanned on an Odyssey CLx Imaging system (FIG. 6).
(§5) Cells were seeded into 96-well ultra low cluster plate (Costar, #7007) in 200 μL complete media and treated at day 2 with DMSO, Staurosporin, or BRD9 degarder, Compound 1, at indicated doses (FIG. 7). Media and compounds were changed every 5 d and cell colonies were imaged at day 14.

SYO1 cells [3] = experiment: Cell cycle analysis, Click-iT Plus EdU Flow Cytometry Assay; assay type: cell-based; details: SYO1, 200 nM or 1 μM, 8 or 13 days, compared to DMSO and lenalidomide
Description: (§6) Procedure: SYO1 cells were treated for 8 or 13 days with DMSO, a BRD9 degrader (Compound 1) at 200 nM or 1 μM, or an E3 ligase binder (lenalidomide) at 200 nM. Compounds were refreshed every 5 days. Cell cycle analysis was performed using the Click-iT™ Plus EdU Flow Cytometry Assay (Invitrogen). The apoptosis assay was performed using the Annexin V-FITC Apoptosis Detection Kit (Sigma A9210). Assays were performed according to the manufacturer's protocol.

[4] = tested on: synovial sarcoma cell lines (SYO1, HS-SY-II, and ASKA); experiment: Growth of synovial sarcoma cell lines, crystal violet day 14 (Example 4); assay type: cell-based; details: for inhibition of growth of synovial sarcoma cell lines: SYO1, HS-SY-II, ASKA, treated daily, day 14, FIG. 8
Description: as §1

SYO1 cells [5] = experiment: Apoptosis assay, Annexin V-FITC Apoptosis Detection Kit; assay type: cell-based; details: SYO1, 200 nM or 1 μM, 8 days, compared to DMSO controls
Description: as §6

[6] = tested on: synovial sarcoma cell lines (SYO1, Yamato, HS-SY-II, and ASKA); experiment: Growth of synovial sarcoma cell lines (confluency, crystal violet, colonies; Example 3); assay type: cell-based; details: FIGS. 5-7, 1 μM in crystal violet assay
Description: as §2, §3, §4, §5

[7] = molecular target: Nanoluciferase-BRD9 fusion protein (Homo sapiens (Human), UniProt Q9H8M2); experiment: SYO1 BRD9 NanoLuc degradation assay; assay type: cell-based; details: Table 5A, SYO-1 cells expressing 3×FLAG-NLuc-BRD9, 6 hours; for DC50: read-out: SYO1 BRD9-NanoLuc degradation IC50
Nanoluciferase-BRD9 fusion protein, sequence (Q9H8M2 whole entry, the tested form may be a part): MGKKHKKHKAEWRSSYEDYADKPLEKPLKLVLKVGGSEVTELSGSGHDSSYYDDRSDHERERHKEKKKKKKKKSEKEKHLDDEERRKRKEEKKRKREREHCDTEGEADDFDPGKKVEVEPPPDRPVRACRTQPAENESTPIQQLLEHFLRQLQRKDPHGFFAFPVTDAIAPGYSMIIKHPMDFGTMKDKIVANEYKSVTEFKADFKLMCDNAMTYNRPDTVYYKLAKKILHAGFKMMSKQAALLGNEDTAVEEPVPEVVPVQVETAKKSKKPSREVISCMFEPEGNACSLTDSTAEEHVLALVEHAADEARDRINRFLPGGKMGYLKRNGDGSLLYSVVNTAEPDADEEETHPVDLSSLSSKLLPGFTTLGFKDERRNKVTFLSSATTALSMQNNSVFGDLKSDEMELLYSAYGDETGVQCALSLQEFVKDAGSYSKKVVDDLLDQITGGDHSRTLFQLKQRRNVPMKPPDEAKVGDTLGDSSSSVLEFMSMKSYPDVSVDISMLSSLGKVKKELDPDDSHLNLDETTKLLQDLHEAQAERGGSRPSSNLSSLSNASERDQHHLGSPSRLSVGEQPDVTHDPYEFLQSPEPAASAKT
Method in brief: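 Degradation was read as loss of nanoluciferase signal (Nano-Glo) after 6 h compound exposure in a stable SYO-1 line carrying 3×FLAG-NLuc-BRD9 (8000 cells/well). Normalised between DMSO (high) and a 1 μM known BRD9 degrader (low).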

BRD9 bromodomain = BRD9 bromodomain (Homo sapiens (Human), UniProt Q9H8M2); experiment: BRD9 bromodomain TR-FRET competition binding assay; details: Table 4; competition with biotinylated ligand, 3 nM Flag-BRD9, 90 minutes
BRD9 bromodomain, sequence (Q9H8M2 133-239): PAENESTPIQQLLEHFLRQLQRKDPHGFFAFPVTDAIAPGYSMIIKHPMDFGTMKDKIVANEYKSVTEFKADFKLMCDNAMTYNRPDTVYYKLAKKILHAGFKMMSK
Method in brief: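 TEV-cleaved Flag-BRD9 (P133-K239, 3 nM) competed against 3.75 nM biotinylated ligand, with 7.5 nM APC-streptavidin and 0.2 nM Eu-W1024 anti-FLAG, in HEPES pH 7.4, NaCl, TCEP, Tween-20, BSA. Compounds were serially diluted 3-fold; after 90 min at room temperature the 665/615 nm emission ratio was read.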

Row | Compound | IC50 [7] [nM] | IC50 (BRD9 bromodomain) [nM] | other results
1 | COc1cc(-c2cn(C)c(=O)c3cnccc23)cc(OC)c1CN(C)CC(=O)NCCOCCOCCNc1cccc2c1C(=O)N(C1CCC(=O)NC1=O)C2=O (stereo not shown) [Compound 1] | – | – | inhibition of growth of non-synovial control cancer cell lines [1]: did not result in inhibition of the growth; inhibition of growth of non-synovial control cancer cell lines [2]: does not result in inhibition of the growth; numbers of cells in the S-phase of the cell cycle (SYO1 cells [3]): reduced numbers of cells in the S-phase; inhibition of growth of synovial sarcoma cell lines [4]: inhibition of the growth of the cells; overall comparison of growth inhibition in synovial cell lines ([4]; compared with Compound 2 and lenalidomide): most significant growth inhibition; numbers of early- and late-apoptotic cells (SYO1 cells [5]): increased numbers of early- and late-apoptotic cells; inhibition of growth of synovial sarcoma cell lines [6]: inhibition of the growth of the cells
2 | COc1cc(-c2cn(C)c(=O)c3cc(O)ccc23)cc(OC)c1CN1CCC2(CC1)CN(C(=O)CCCOc1cccc3c1C(=O)N(C1CCC(=O)NC1=O)C3=O)CCO2 (stereo not shown) [Compound D54, 2-(2,6-dioxopiperidin-3-yl)-4-[4-(9-[[4-(7-hydroxy-2-methyl-1-oxoisoquinolin-4-yl)-2,6-dimethoxyphenyl]methyl]-1-oxa-4,9-diazaspiro[5.5]undecan-4-yl)-4-oxobutoxy]isoindole-1,3-dione formic acid] | 10 to 100 | 10 to 100 | –
3 | COc1cc(-c2cn(C)c(=O)c3cnccc23)cc(OC)c1CN(C)C1CC2CN(C(=O)CCOCCOc3cccc4c3C(=O)N(C3CCC(=O)NC3=O)C4=O)CC2C1 (stereo not shown) [Compound D160] | – | < 10 | DC50 [7]: 10 to 100 nM
4 | COc1cc(-c2cn(C)c(=O)c3cnccc23)cc(OC)c1CN1CC(C(=O)NCCOCCOCCNc2cccc3c2C(=O)N(C2CCC(=O)NC2=O)C3=O)C1 (stereo not shown) [Compound D7, 1-[[2,6-dimethoxy-4-(2-methyl-1-oxo-1,2-dihydro-2,7-naphthyridin-4-yl)phenyl]methyl]-N-[2-[2-(2-[[2-(2,6-dioxopiperidin-3-yl)-1,3-dioxo-2,3-dihydro-1H-isoindol-4-yl]amino]ethoxy)ethoxy]ethyl]azetidine-3-carboxamide formic acid] | – | < 10 | DC50 [7]: 10 to 100 nM
5 | COc1cc(-c2cn(C)c(=O)c3cnccc23)cc(OC)c1CN1CC(S(=O)(=O)NCCCCCCNc2ccc3c(c2)C(=O)N(C2CCC(=O)NC2=O)C3=O)C1 (stereo not shown) [Compound D67, 1-[[2,6-dimethoxy-4-(2-methyl-1-oxo-1,2-dihydro-2,7-naphthyridin-4-yl)phenyl]methyl]-N-(6-[[2-(2,6-dioxopiperidin-3-yl)-1,3-dioxo-2,3-dihydro-1H-isoindol-5-yl]amino]hexyl)azetidine-3-sulfonamide formic acid] | < 10 | < 10 | –
6 | COc1cc(-c2cn(C)c(=O)c3cnccc23)cc(OC)c1CN1CC(CCNC(=O)CCOCCOc2ccc3c(c2)C(=O)N(C2CCC(=O)NC2=O)C3=O)C1 (stereo not shown) [Compound D117] | – | < 10 | DC50 [7]: 100 to 1000 nM
7 | COc1cc(-c2cn(C)c(=O)c3cnccc23)cc(OC)c1CN(C)C [Compound 2] | – | – | inhibition of growth of non-synovial control cancer cell lines [1]: did not result in inhibition of the growth; inhibition of growth of non-synovial control cancer cell lines [2]: does not result in inhibition of the growth; inhibition of growth of synovial sarcoma cell lines [4]: inhibition of the growth of the cells; inhibition of growth of synovial sarcoma cell lines [6]: inhibition of the growth of the cells
8 | COc1cc(-c2cn(C)c(=O)c3cnccc23)cc(OC)c1CN1CCC2(C[C@H]2NC(=O)CCOCCOc2ccc3c(c2)C(=O)N(C2CCC(=O)NC2=O)C3=O)C1 (stereo partly shown) [Compound D126] | 100 to 1000 | 10 to 100 | –

Now from value to molecule, other results behind:

Row | IC50 [7] [nM] | IC50 (BRD9 bromodomain) [nM] | Compound | other results
9 | < 10 | < 10 | COc1cc(-c2cn(C)c(=O)c3cnccc23)cc(OC)c1CN(C)CC1CC2CN(C(=O)CCOCCOc3ccc4c(c3)C(=O)N(C3CCC(=O)NC3=O)C4=O)C[C@@H]2C1 (stereo partly shown) [Compound D176] | –
10 | < 10 | < 10 | COc1cc(-c2cn(C)c(=O)c3cnccc23)cc(OC)c1CN(C)C12CC(NC(=O)CCCCCOc3cccc4c3C(=O)N(C3CCC(=O)NC3=O)C4=O)(C1)C2 (stereo not shown) [Compound D60, N-[3-([[2,6-dimethoxy-4-(2-methyl-1-oxo-2,7-naphthyridin-4-yl)phenyl]methyl](methyl)amino)bicyclo[1.1.1]pentan-1-yl]-6-[[2-(2,6-dioxopiperidin-3-yl)-1,3-dioxoisoindol-4-yl]oxy]hexanamide formic acid] | –
11 | < 10 | < 10 | COc1cc(-c2cn(C)c(=O)c3cnccc23)cc(OC)c1CN1CC(S(=O)(=O)NCCCCCCCCNc2cccc3c2C(=O)N(C2CCC(=O)NC2=O)C3=O)C1 (stereo not shown) [Compound D12, 1-[[2,6-dimethoxy-4-(2-methyl-1-oxo-1,2-dihydro-2,7-naphthyridin-4-yl)phenyl]methyl]-N-(8-[[2-(2,6-dioxopiperidin-3-yl)-1,3-dioxo-2,3-dihydro-1H-isoindol-4-yl]amino]octyl)azetidine-3-sulfonamide] | –
12 | 100 to 1000 | 10 to 100 | COc1cc(-c2cn(C)c(=O)c3cnccc23)cc(OC)c1CN(C)CC1CC2(C1)CN(C(=O)CCOCCOc1ccc3c(c1)C(=O)N(C1CCC(=O)NC1=O)C3=O)C2 (stereo not shown) [Compound D174] | –

From patent US11414416B1, “Compounds and uses thereof” (Foghorn Therapeutics Inc., priority 2019, dated 2022)
